pIC50: −log10 of the molar value.
How the values were obtained:
[1] = Comparative test for transferability to the brain in rat; assay type: in vivo; conditions: male SD rats, 50 mg/kg via tail vein
Description: To male SD rats (6 weeks old), the Control Compound or the Inventive Compound 2 was administered through the tail vein in an amount of 50 mg/kg. After administration, whole blood samples were collected over time from the abdominal aorta under etherization, and the brain tissues were extracted immediately. The brain tissues were lightly washed off to remove the blood attached around with physiological saline, and subsequently the tissues were frozen in liquid nitrogen and preserved at −30° C. until analyzed. The blood was centrifuged at 4° C. at a rotation speed of 15000 for 15 minutes to separate the supernatant plasma, and was preserved at −30° C. until analyzed. The brain tissues were thawed by standing at ambient temperature, and then the wet weight was measured. Distilled water was added in an amount five times of the wet weight, and a suspension was prepared using a Polytron homogenizer. The measurement of the test compound concentration in the plasma and the brain tissues was performed by LC/MS/MS. The transferability of the drug to the brain was calculated by dividing the drug concentration in the brain tissues by the plasma concentration obtained at the same time.

[2] = Metabolic stability test in rat (generation of control compound in plasma); assay type: in vivo; conditions: male SD rats
Text: The compound represented by Formula (1) of the present invention has a structure in which the hydroxyl group on the 9-position of a 9-hydroxymethyl-cyclohepta[b]pyridine-3-carbonylguanidine derivative is converted to a specific substituent. However, if the compound is metabolized in vivo to remove the specific substituent from the compound, there may be generated the original 9-hydroxymethyl-cyclohepta[b]pyridine-3-carbonylguanidine derivative, which has toxic effects on the central nervous system. Thus, the inventive compounds as synthesized in Examples were administered in vivo to study whether the control compound, which was the corresponding 9-hydroxymethyl product, was generated.
Male SD rats (7 weeks old) were administered at 1 mg/kg (an amount calculated excluding salts) of the control compound, an equivalent amount of the Inventive Compound 2, 4, 6, 7 or 12, or Reference Compound 20, through the tail vein. After administration, about 0.2 mL of blood samples were collected after 5, 15, 30, 60 and 120 minutes, and the blood samples were centrifuged at 4° C. at a speed of rotation of 15000 for 15 minutes, thus to separate the supernatant plasma. The concentration of the control compound in the plasma was measured by LC/MS/MS. The measurement results were shown as +++ when the detected plasma concentration of the control compound is 200 ng/mL or greater; ++ for more than 100 ng/mL and less than 200 ng/mL; + for more than 20 ng/mL and less than 100 ng/mL; and − for less than 20 ng/mL or no detection.

male mice = assay: Toxicity test with 2-days repeated intraperitoneal administration in mouse; assay type: in vivo; conditions: equivalent of 300 mg/kg control compound intraperitoneally once a day for 2 days
Description: For three male mice in each group, 300 mg/kg of the Control Compound (an amount calculated excluding salts), or an equivalent amount of the Inventive Compound 2, 4, 6, 7 or 12 were intraperitoneally administered once a day for 2 days, and a histopathological tests were performed. The Control Compound, and the Inventive Compounds 2, 4 and 6 were suspended in a 0.5% tragacanth gum solution, and the Inventive Compound 7 was suspended in a 10 DMSO-containing 0.5% tragacanth gum solution, while the Inventive Compound 12 was suspended in olive oil. For the histopathological test, in order to make a more thorough examination of central nervous toxicity, the brain was examined after whole body was subjected to perfusion fixation with a 4% formaldehyde in neutral phosphate buffer as a fixing solution using a liquid transporting pump under pentobarbital sodium anesthesia.

[3] = tested on: reperfusion-induced arrhythmia upon myocardial ischemia; assay: Reperfusion-induced arrhythmia inhibitory action test; assay type: in vivo, rat; conditions: male SD rats, 3.62 mmol/L, 1 mL/kg intravenous, within 10 minutes after reperfusion
Description: Subsequently, in evaluation of the in vivo NHE inhibitory action, the effect of the test compound on reperfusion-induced arrhythmia upon myocardial ischemia was evaluated according to the method of Aihara et al. [European Journal of Pharmacology, Vol. 404, p. 221-229 (2000)]. Under anesthesia using pentobarbital sodium (60 mg/kg, intraperitoneal administration), cannulae were inserted into trachea, femoral vein and carotid artery of male SD rats ([…]) for artificial ventilation, drug administration and blood pressure measurement, respectively. The blood pressure was measured using a strain pressure amplifier via a pressure transducer, while the heart rate was measured from the blood pressure pulse wave using a cardiotachometer. Furthermore, an electrocardiogram (lead II) was measured from the electrodes attached to each four limbs. Next, under artificial ventilation, left thoracotomy was performed and a snare (5-0 nylon) was loosely placed around a blood vessel which was about 3 mm apart from the origin of the left coronary artery. Thereafter, it was confirmed that arrhythmia was not occurred for 10 minutes, and then the snare was fastened to induce local myocardial ischemia. Furthermore, after 4 minutes of myocardial ischemia, the compound was intravenously administered for 1 minute, and after 5 minutes of myocardial ischemia, the snare was loosened, then the arrhythmia occurred after reperfusion was recorded and analyzed with an arrhythmia analyzer (Softron Co., Ltd.), thereby the anti-arrhythmic action of the compound was evaluated. […] The control group was administered with physiological saline.
With regard to the ventricular fibrillation (Vf) which occurred within 10 minutes after reperfusion (in the cases of halfway death, up to the time point where cardiac arrest was confirmed), arrhythmia analysis was performed according to the Guidelines for Lambeth Convention [Cardiovascular research, Vol. 22, p. 447-455, 1988], and evaluation was made in terms of the frequency of Vf occurrence, cumulative duration time of Vf, and the mortality.
The frequency of Vf occurrence, cumulative duration of Vf, and the mortality for the respective test compounds are presented in Table 2.

Na^+/H^+ exchanger (NHE) = biological target: T1, Na^+/H^+ exchanger (NHE) (Rattus norvegicus, UniProt P26431); assay: NHE inhibitory effect test (swelling of rat platelets induced by sodium propionate); assay type: cell-based; conditions: rat platelet-rich plasma, sodium propionate buffer pH 6.7; 300 μM Amiloride taken as 100% inhibition; Probit method
T1 construct: from tissue; host or cells: platelet-rich plasma from Wistar rat blood
Description: The NHE inhibitory activity was measured according to the method by Scholz et al. [British Journal of Pharmacology, Vol. 109, p. 562-568 (1993)], taking the swelling of rat platelets induced by sodium propionate as an index.
Under etherization, blood was collected (8 mL) from the abdominal aorta of a Wistar rat, and 1 mL of a citrate dextrose solution as an anticoagulant was added. The blood sample was immediately centrifuged at 90×g for 10 minutes, and then the collected supernatant was taken as platelet-rich plasma. Subsequently, to 250 μL of a 140 mM sodium propionate buffer solution containing the test compound dissolved in dimethylsulfoxide (pH 6.7, final dimethylsulfoxide concentration 1%), the platelet-rich plasma prepared in the above (number of platelet; 10×10^6/50 μL) was added, and the decrease in the absorbance associated with the swelling of platelets was measured over time with a Hematracer (NKK Corp.).
The rate of decrease in the absorbance at 20 seconds after the addition of the platelet-rich plasma was taken as the NHE activity, and the inhibitory activity of the respective compounds was expressed as a relative activity, while the action obtained upon addition of 300 μM of Amiloride was taken as 100% inhibition.
In addition, the test results were obtained by calculating the concentration at which the inhibitory activity of the test compound becomes 50% (IC50 value), by a Probit method.

Beagle dogs = assay: Toxicity test after 4-days repeated intravenous administration in beagle dogs; assay type: in vivo, dog; conditions: equivalent of 30 mg/kg control compound intravenously once a day for 4 days
Description: With one male and one female dogs in each group, 30 mg/kg of the Control Compound dissolved in physiological saline (an amount calculated excluding salts), or an equivalent amount of the Inventive Compound 2, 4, 6 or 8 was repeatedly administered intravenously once a day for 4 days, and general symptom observation and pharmacological histopathologic examination were performed.

T1 sequence (P26431 whole entry): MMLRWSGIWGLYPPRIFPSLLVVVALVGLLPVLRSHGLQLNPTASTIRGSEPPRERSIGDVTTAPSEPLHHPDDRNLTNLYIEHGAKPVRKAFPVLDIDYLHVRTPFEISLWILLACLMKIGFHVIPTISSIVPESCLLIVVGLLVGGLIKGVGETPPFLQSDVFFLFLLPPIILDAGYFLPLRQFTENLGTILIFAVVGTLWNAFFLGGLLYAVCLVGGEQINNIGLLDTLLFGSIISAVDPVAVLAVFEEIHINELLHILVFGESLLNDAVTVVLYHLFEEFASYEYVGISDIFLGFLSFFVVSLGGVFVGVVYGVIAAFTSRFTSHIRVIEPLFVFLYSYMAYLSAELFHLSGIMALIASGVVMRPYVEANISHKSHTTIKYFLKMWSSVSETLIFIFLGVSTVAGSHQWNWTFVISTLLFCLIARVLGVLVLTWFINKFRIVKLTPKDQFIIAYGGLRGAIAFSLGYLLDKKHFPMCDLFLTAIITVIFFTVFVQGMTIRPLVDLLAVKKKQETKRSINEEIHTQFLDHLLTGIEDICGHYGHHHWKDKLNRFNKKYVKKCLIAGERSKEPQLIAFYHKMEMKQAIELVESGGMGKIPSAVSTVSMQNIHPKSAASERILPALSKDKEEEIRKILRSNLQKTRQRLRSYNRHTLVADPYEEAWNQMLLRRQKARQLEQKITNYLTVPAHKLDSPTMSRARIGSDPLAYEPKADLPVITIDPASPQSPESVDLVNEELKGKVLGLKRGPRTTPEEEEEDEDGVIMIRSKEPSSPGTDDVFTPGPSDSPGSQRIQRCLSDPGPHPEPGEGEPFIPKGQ

In the case of `Cc1nc2c(cc1C(=O)NC(=N)N)CCCCC2COS(=O)(=O)[O-].[Na+]` (stereo not drawn) [Inventive Compound 2, 3-Guanidinocarbonyl-2-methyl-6,7,8,9-tetrahydro-5H-cyclohepta[b]pyridin-9-ylmethyl sulfate sodium salt], the “Transferability to the brain tissues (in words)” value ([1]; compared with the Control Compound) was “decreased transferability to the brain tissues”, the Kp at 15 min ([1]; rat, brain/plasma, intravenous, 15 min, read-out: Concentration Intracerebral/Plasma, after 15 min) was 0.29 and the “Plasma concentration of the control compound, after 5 min” value ([2]; equivalent of 1 mg/kg control compound via tail vein, LC/MS/MS, 5 min) was “− (− for less than 20 ng/mL or no detection)”. For the same molecule, the “Plasma concentration of the control compound, after 15 min” value ([2]; equivalent of 1 mg/kg control compound via tail vein, LC/MS/MS, 15 min) was “− (− for less than 20 ng/mL or no detection)”, the “Plasma concentration of the control compound, after 30 min” value ([2]; equivalent of 1 mg/kg control compound via tail vein, LC/MS/MS, 30 min) was “− (− for less than 20 ng/mL or no detection)” and the “Plasma concentration of the control compound, after 60 min” value ([2]; equivalent of 1 mg/kg control compound via tail vein, LC/MS/MS, 60 min) was “− (− for less than 20 ng/mL or no detection)”. The “Plasma concentration of the control compound, after 120 min” value ([2]; equivalent of 1 mg/kg control compound via tail vein, LC/MS/MS, 120 min) was “− (− for less than 20 ng/mL or no detection)”, the “Decomposition into the Control Compound in vivo (in words)” value ([2]; tail vein, plasma 5-120 min) was “not detected at any time point” and the “Histopathological finding in the brain” value (male mice) was “any histologic finding which could be caused by drug administration was not recognized”. For the same molecule, the “Cumulative duration of Vf” value [3] was 13.7 s, the “Frequency of Vf occurrence” value [3] was 40% and the Mortality [3] was 20%. The pIC50 (Na^+/H^+ exchanger (NHE)) was 6.84, the “General condition (symptom observation)” value (Beagle dogs) was “only vomiting was recognized” and the “Pathologic examination of the brain” value (Beagle dogs) was “any histologic finding which could be caused by drug administration was not recognized”.
